Key:
rat [1] = details: Sub-acute repeat dose toxicity, sprague dawley, Oral, Gavage/Intubation, dose end: 28 day, group: systemic
rat [2] = details: Multigenerational reproductive toxicity study, sprague dawley, Oral, Gavage/Intubation, dose end: 1 generation
mouse [3] = details: Combined chronic toxicity/carcinogenicity, b6c3f1, Oral, Feed, dose end: 2 year
rat [4] = details: Multigenerational reproductive toxicity study, sprague dawley, Oral, Feed, dose end: 2 generation
rat [5] = details: Combined chronic toxicity/carcinogenicity, sprague dawley, Oral, Feed, dose end: 28 month
dog [6] = details: Subchronic oral toxicity in nonrodent, beagle, Feed, dose end: 90 day
mouse [7] = details: Subchronic oral toxicity in rodents, cd1, Feed, dose end: 3 month, group: systemic
dog [8] = details: Chronic toxicity, beagle, Oral, Feed, dose end: 12 month
rat [9] = details: Prenatal developmental toxicity study, wistar, Oral, Gavage/Intubation, dose end: 15 GD
rat [10] = details: Subchronic oral toxicity in rodents, sprague dawley, Feed, dose end: 3 month
dog [11] = details: Subchronic oral toxicity in nonrodent, beagle, Feed, dose end: 13 week
dog [12] = details: Chronic toxicity, beagle, Oral, Feed, dose end: 12 month, group: systemic
dog [13] = details: Subchronic oral toxicity in nonrodent, beagle, Feed, dose end: 6 month, group: systemic
rat [14] = details: Subchronic oral toxicity in rodents, fischer, Feed, dose end: 13 week, group: systemic, systemic / organ weight / liver / nos + systemic / pathology microscopic / liver / [other] + systemic / organ weight / liver / relative to …
mouse [15] = details: Carcinogenicity, b6c3f1, Oral, Feed, dose end: 2 year, group: systemic
rat [16] = details: Combined chronic toxicity/carcinogenicity, fischer, Oral, Feed, dose end: 2 year, group: systemic
rat [17] = details: Subchronic oral toxicity in rodents, Feed, dose end: 90 day, group: systemic
rat [18] = details: Combined chronic toxicity/carcinogenicity; fischer; Oral; Feed; dose end: 2 year; group: systemic; systemic / pathology microscopic / liver / hypertrophy + systemic / in life observation / clinical signs / hematuria + systemic / pathology …
mouse [19] = details: Subchronic oral toxicity in rodents, b6c3f1, Feed, dose end: 13 week, group: systemic, systemic / organ weight / liver / nos + systemic / pathology microscopic / liver / cellular alteration
[20] = systemic / organ weight / liver / relative to body weight + systemic / clinical chemistry / bilirubin / total bilirubin + systemic / in life…
[21] = group: offspring, systemic / in life observation / body weight / offspring (pup) weight
[22] = group: parental, systemic / organ weight / heart / relative to body weight + systemic / organ weight / kidney / relative to body weight + systemic / organ …
[23] = group: reproductive, reproductive / offspring survival early / birth index / live birth index
[24] = group: cholinesterase, cholinesterase / cholinesterase / cholinesterase / brain cholinesterase (che) + cholinesterase / cholinesterase / cholinesterase / …
[25] = group: systemic, systemic / clinical chemistry / cholesterol / cholesterol
[26] = group: systemic, systemic / clinical chemistry / cholesterol / cholesterol + systemic / in life observation / body weight / body weight + systemic / in life …
[27] = group: offspring, developmental / offspring survival late / viability index / viability index
[28] = group: parental, systemic / in life observation / body weight / body weight gain
[29] = group: cholinesterase, cholinesterase / cholinesterase / cholinesterase / erythrocyte cholinesterase (che)
[30] = group: systemic, systemic / hematology / erythrocyte (rbc) count differential / erythrocyte (rbc) + systemic / hematology / hematocrit (hct) / hematocrit (…
[31] = group: cholinesterase, cholinesterase / cholinesterase / cholinesterase / erythrocyte cholinesterase (che) + cholinesterase / cholinesterase / cholinesterase / …
[32] = group: systemic, systemic / in life observation / clinical signs / pulse/pressure
[33] = systemic / in life observation / body weight / body weight + systemic / organ weight / brain / relative to body weight + systemic / organ …
[34] = group: systemic, systemic / organ weight / liver / absolute
[35] = group: developmental, systemic / in life observation / body weight / fetal weight + developmental / developmental malformation / bone / delayed ossification + …
[36] = group: maternal, reproductive / reproductive performance / postimplantation loss / postimplantation loss + reproductive / reproductive performance / …
[37] = group: systemic, systemic / clinical chemistry / albumin-globulin ratio / albumin-globulin ratio
[38] = group: systemic, systemic / hematology / hemoglobin (hgb) / hemoglobin (hgb) + systemic / pathology microscopic / stomach / acanthosis + systemic / pathology…
[39] = group: cholinesterase, cholinesterase / cholinesterase / cholinesterase / plasma cholinesterase (che) + cholinesterase / cholinesterase / cholinesterase / …
[40] = group: systemic, systemic / in life observation / body weight / body weight gain + systemic / in life observation / clinical signs / emaciation + systemic / …
[41] = systemic / organ weight / liver / relative to body weight + systemic / in life observation / body weight / body weight gain + systemic / …
[42] = systemic / organ weight / liver / absolute + systemic / organ weight / liver / relative to body weight
[43] = systemic / organ weight / liver / absolute + systemic / organ weight / liver / relative to body weight + systemic / clinical chemistry / …
[44] = systemic / organ weight / kidney / nos + systemic / organ weight / kidney / relative to body weight
[45] = systemic / in life observation / body weight / body weight + systemic / in life observation / mortality / mortality
[46] = systemic / organ weight / liver / nos + systemic / pathology microscopic / liver / [other]
[47] = systemic / organ weight / liver / nos + systemic / pathology microscopic / liver / [other] + systemic / organ weight / kidney / nos

O=[N+]([O-])c1ccc(O)c([N+](=O)[O-])c1 [2,4-Dinitrophenol]
LEL (rat [1]; systemic / clinical chemistry / bilirubin / total bilirubin): 10 mg/kg/day
NEL (rat [1]; systemic / clinical chemistry / bilirubin / total bilirubin + systemic / in life observation / clinical signs / [other] + systemic / in life…): 3 mg/kg/day
LOAEL (rat [1]; [20]): > 80 mg/kg/day
NOAEL (rat [1]; [20]): ≥ 80 mg/kg/day
LEL (rat [2]; [21]): 30 mg/kg/day
LOAEL (rat [2]; [21]): > 30 mg/kg/day
NEL (rat [2]; [21]): 10 mg/kg/day
NOAEL (rat [2]; [21]): ≥ 30 mg/kg/day
LEL (rat [2]; [22]): 30 mg/kg/day
LOAEL (rat [2]; [22]): > 30 mg/kg/day
NEL (rat [2]; [22]): 10 mg/kg/day
NOAEL (rat [2]; [22]): ≥ 30 mg/kg/day
LEL (rat [2]; [23]): 30 mg/kg/day
LOAEL (rat [2]; [23]): > 30 mg/kg/day
NEL (rat [2]; [23]): 10 mg/kg/day
NOAEL (rat [2]; [23]): ≥ 30 mg/kg/day

COP(=S)(OC)Oc1ccc([N+](=O)[O-])cc1 [Methyl parathion]
LEL (mouse [3]; [24]): 1.6 mg/kg/day
LOAEL (mouse [3]; [24]): 1.6 mg/kg/day
NEL (mouse [3]; [24]): 0.2 mg/kg/day
NOAEL (mouse [3]; [24]): 0.2 mg/kg/day
LEL (mouse [3]; [25]): 2.1 mg/kg/day
LOAEL (mouse [3]; [25]): 2.1 mg/kg/day
NEL (mouse [3]; [26]): 0.3 mg/kg/day
NOAEL (mouse [3]; [26]): 0.3 mg/kg/day
LEL (rat [4]; [27]): 2 mg/kg/day
LOAEL (rat [4]; [27]): 2 mg/kg/day
NEL (rat [4]; [27]): 0.38 mg/kg/day
NOAEL (rat [4]; [27]): 0.38 mg/kg/day
LOAEL (rat [4]; [28]): 2.3 mg/kg/day
NEL (rat [4]; [28]): 0.44 mg/kg/day
NOAEL (rat [4]; [28]): 0.44 mg/kg/day
LEL (rat [4]; group: parental, systemic / in life observation / body weight / body weight gain + systemic / in life observation / body weight / body weight): 2.3 mg/kg/day
LOAEL (rat [5]; [24]): > 2.21 mg/kg/day
NEL (rat [5]; [24]): 0.02 mg/kg/day
NOAEL (rat [5]; [24]): ≥ 2.21 mg/kg/day
LEL (rat [5]; [29]): 0.21 mg/kg/day
LEL (rat [5]; [30]): 0.21 mg/kg/day
LOAEL (rat [5]; [30]): 0.21 mg/kg/day
NEL (rat [5]; [30]): 0.02 mg/kg/day
NOAEL (rat [5]; [30]): 0.02 mg/kg/day
LEL (dog [6]; [31]): 1 mg/kg/day
LOAEL (dog [6]; [31]): 1 mg/kg/day
NEL (dog [6]; [31]): 0.3 mg/kg/day
NOAEL (dog [6]; [31]): 0.3 mg/kg/day
LEL (dog [6]; [32]): 3 mg/kg/day
LOAEL (dog [6]; [32]): 3 mg/kg/day
NEL (dog [6]; [32]): 1 mg/kg/day
NOAEL (dog [6]; [32]): 1 mg/kg/day
LOAEL (mouse [7]; systemic / in life observation / body weight / body weight): 13.5 mg/kg/day
LEL (mouse [7]; [33]): 13.5 mg/kg/day
NEL (mouse [7]; [33]): 6.5 mg/kg/day
NOAEL (mouse [7]; [33]): 6.5 mg/kg/day
LEL (dog [8]; [31]): 0.03 mg/kg/day
LOAEL (dog [8]; [31]): 0.03 mg/kg/day
NEL (dog [8]; [31]): < 0.03 mg/kg/day
NOAEL (dog [8]; [31]): < 0.03 mg/kg/day
LEL (dog [8]; [34]): 0.3 mg/kg/day
LOAEL (dog [8]; [34]): > 0.3 mg/kg/day
NEL (dog [8]; [34]): 0.1 mg/kg/day
NOAEL (dog [8]; [34]): ≥ 0.3 mg/kg/day
LEL (rat [9]; [24]): 3 mg/kg/day
LOAEL (rat [9]; [24]): > 3 mg/kg/day
NOAEL (rat [9]; [24]): ≥ 3 mg/kg/day
LOAEL (rat [9]; group: developmental, systemic / in life observation / body weight / fetal weight): 3 mg/kg/day
LEL (rat [9]; [35]): 3 mg/kg/day
NEL (rat [9]; [35]): 1 mg/kg/day
NOAEL (rat [9]; [35]): 1 mg/kg/day
LEL (rat [9]; [36]): 3 mg/kg/day
LOAEL (rat [9]; [36]): 3 mg/kg/day
NEL (rat [9]; [36]): 1 mg/kg/day
NOAEL (rat [9]; [36]): 1 mg/kg/day
LEL (rat [10]; [29]): 1.24 mg/kg/day
LOAEL (rat [10]; [29]): 1.24 mg/kg/day
NEL (rat [10]; [31]): 0.12 mg/kg/day
NOAEL (rat [10]; [31]): 0.12 mg/kg/day
LEL (rat [10]; [37]): 0.16 mg/kg/day
NEL (rat [10]; [37]): < 0.16 mg/kg/day
LOAEL (rat [10]; [38]): 1.24 mg/kg/day
NOAEL (rat [10]; [38]): 0.12 mg/kg/day
LEL (dog [11]; [39]): 3 mg/kg/day
LOAEL (dog [11]; [39]): 3 mg/kg/day
NEL (dog [11]; [39]): 0.3 mg/kg/day
NOAEL (dog [11]; [39]): 0.3 mg/kg/day
LOAEL (dog [11]; group: systemic, systemic / in life observation / body weight / body weight gain): 3 mg/kg/day
LEL (dog [11]; [40]): 3 mg/kg/day
NOAEL (dog [11]; [40]): 0.3 mg/kg/day
NEL (dog [11]; group: systemic, systemic / in life observation / clinical signs / emaciation + systemic / in life observation / clinical signs / dehydration + systemic / in…): 0.3 mg/kg/day

Nc1c(Cl)c(Cl)nc(C(=O)O)c1Cl [Picloram]
NEL (dog [12]; systemic / organ weight / liver / relative to body weight + systemic / in life observation / body weight / body weight gain): 35 mg/kg/day
LOAEL (dog [12]; [41]): > 175 mg/kg/day
NOAEL (dog [12]; [41]): ≥ 175 mg/kg/day
LEL (dog [12]; systemic / organ weight / liver / relative to body weight + systemic / organ weight / liver / absolute): 175 mg/kg/day
LEL (dog [13]; [42]): 35 mg/kg/day
LOAEL (dog [13]; [42]): 35 mg/kg/day
NEL (dog [13]; [43]): 7 mg/kg/day
NOAEL (dog [13]; [43]): 7 mg/kg/day
LEL (rat [14]): 150 mg/kg/day
LOAEL (rat [14]): 150 mg/kg/day
NEL (rat [14]): 50 mg/kg/day
NOAEL (rat [14]): 50 mg/kg/day
LEL (mouse [15]; systemic / organ weight / kidney / nos): 1000 mg/kg/day
LOAEL (mouse [15]; [44]): > 1000 mg/kg/day
NEL (mouse [15]; [44]): 500 mg/kg/day
NOAEL (mouse [15]; [44]): ≥ 1000 mg/kg/day
LEL (rat [16]; [45]): 20 mg/kg/day
NEL (rat [16]; [45]): < 20 mg/kg/day
NOAEL (rat [16]; systemic / in life observation / body weight / body weight + systemic / pathology microscopic / liver / hypertrophy + systemic / clinical …): 20 mg/kg/day
LOAEL (rat [16]; systemic / pathology microscopic / liver / hypertrophy): 60 mg/kg/day
LEL (rat [17]; [46]): 150 mg/kg/day
LOAEL (rat [17]; [46]): 150 mg/kg/day
NEL (rat [17]; [47]): 50 mg/kg/day
NOAEL (rat [17]; [47]): 50 mg/kg/day
LEL (rat [18]): 250 mg/kg/day
LOAEL (rat [18]): 250 mg/kg/day
NEL (rat [18]): < 250 mg/kg/day
NOAEL (rat [18]): < 250 mg/kg/day
LEL (mouse [19]): 1000 mg/kg/day
LOAEL (mouse [19]): 1000 mg/kg/day
NEL (mouse [19]): < 1000 mg/kg/day
NOAEL (mouse [19]): < 1000 mg/kg/day

Source: EPA's ToxRefDB 2
